Measurements as given in ChEMBL document CHEMBL1201862, “PubChem BioAssay data set” (2004).
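Method: 48-hour compound exposure of cells in 96-well plates, five concentrations, linear interpolation of endpoints. GI50 = concentration required for 50% inhibition of growth.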 Activity calls are given as the source filed them. No stated cut-off is given here; in the data, active = GI50 up to about 1.1 µM and inactive = higher.

How the values were obtained:
Assay in all cases: DTP human tumour cell line panel, 48 h
SN12C = tested on: SN12C
NCI-H226 = tested on: NCI-H226
EKVX = tested on: EKVX
SK-MEL-5 = tested on: SK-MEL-5
SK-MEL-2 = tested on: SK-MEL-2
MDA-MB-435 = tested on: MDA-MB-435
SK-OV-3 = tested on: SK-OV-3
Malme-3M = tested on: Malme-3M
SK-MEL-28 = tested on: SK-MEL-28
HCC 2998 = tested on: HCC 2998
MOLT-4 = tested on: MOLT-4
MDA-N = tested on: MDA-N
SNB-19 = tested on: SNB-19
NCI/ADR-RES = tested on: NCI/ADR-RES
SF-268 = tested on: SF-268
U-251 = tested on: U-251
786-0 = tested on: 786-0
HCT-15 = tested on: HCT-15
A549 = tested on: A549
A498 = tested on: A498

Row | SMILES | GI50 (SN12C) | GI50 (NCI-H226) | GI50 (EKVX) | GI50 (SK-MEL-5) | GI50 (SK-MEL-2) | GI50 (MDA-MB-435) | GI50 (SK-OV-3) | GI50 (Malme-3M) | GI50 (SK-MEL-28) | GI50 (HCC 2998) | GI50 (MOLT-4) | GI50 (MDA-N) | GI50 (SNB-19) | GI50 (NCI/ADR-RES) | GI50 (SF-268) | GI50 (U-251) | GI50 (786-0) | GI50 (HCT-15) | GI50 (A549) | GI50 (A498)
1 | COc1cc([C@@H]2c3cc4c(cc3[C@@H](Nc3ccc(/N=C\c5ccc(C(=O)O[C@@H](C(=O)O[C@H]6C[C@@]7(O)[C@@H](OC(=O)c8ccccc8)[C@@H]8[C@]9(OC(C)=O)CO[C@@H]9C[C@H](O)[C@@]8(C)C(=O)[C@H](OC(C)=O)C(=C6C)C7(C)C)[C@@H](NC(=O)c6ccccc6)c6ccccc6)cc5)cc3)[C@H]3COC(=O)[C@H]23)OCO4)cc(OC)c1O | 2.88 µM (inactive) | 1.57 µM (inactive) | 16.3 µM (inactive) | 2.96 µM (inactive) | > 33.7 µM (inactive) | 0.208 µM (active) | 2.78 µM (inactive) | > 50 µM (inactive) | > 38.8 µM (inactive) | 14.9 µM (inactive) | 0.14 µM (active) | 9.33 µM (inactive) | 2.48 µM (inactive) | > 45.8 µM (inactive) | 4.34 µM (inactive) | 3.34 µM (inactive) | 2.63 µM (inactive) | 7.96 µM | 0.721 µM (active) | 0.196 µM (active)
2 | Cc1ncc([N+](=O)[O-])n1CCNC(=O)CCCn1cnc([N+](=O)[O-])n1 | > 41.8 µM (inactive) | > 100 µM (inactive) | > 31.6 µM (inactive) | > 72.4 µM (inactive) | > 90.8 µM (inactive) | > 100 µM (inactive) | > 100 µM (inactive) | > 100 µM (inactive) | > 100 µM (inactive) | > 100 µM (inactive) | > 100 µM (inactive) | > 100 µM (inactive) | > 100 µM (inactive) | > 100 µM (inactive) | > 100 µM (inactive) | > 100 µM (inactive) | > 100 µM (inactive) | > 76.6 µM | > 78.3 µM (inactive) | > 84.3 µM (inactive)
3 | CC(=O)O[C@H]1C(=O)[C@@]2(C)[C@H]([C@H](OC(=O)c3ccc(F)cc3)[C@]3(O)C[C@H](OC(=O)[C@H](O)[C@@H](NC(=O)c4ccccc4)c4ccccc4)C(C)=C1C3(C)C)[C@]1(OC(C)=O)CO[C@@H]1C[C@@H]2O | 0.528 µM (active) | 0.108 µM (active) | 2 µM (inactive) | 0.023 µM (active) | 0.0597 µM (active) | 0.0025 µM (active) | 0.0159 µM (active) | 0.0127 µM (active) | 9.48 µM (inactive) | 0.0107 µM (active) | 0.0146 µM (active) | 0.0025 µM (active) | 0.0306 µM (active) | 9.84 µM (inactive) | 0.0929 µM (active) | 0.00857 µM (active) | 0.084 µM (active) | 1.47 µM | 0.082 µM (active) | 0.202 µM (active)
4 | COC(=O)/C=C\C(C#N)(C#N)/N=C/c1ccc(Br)cc1 | 5.42 µM (inactive) | 6.4 µM (inactive) | 14.2 µM (inactive) | 1.5 µM (inactive) | 19.3 µM (inactive) | 7 µM (inactive) | 18.8 µM (inactive) | 3.24 µM (inactive) | 15.4 µM (inactive) | 16.9 µM (inactive) | 0.673 µM (active) | 5.71 µM (inactive) | 2.74 µM (inactive) | 20.2 µM (inactive) | 15.5 µM (inactive) | 13.6 µM (inactive) | 1.02 µM (active) | 2.94 µM | 2.77 µM (inactive) | 16.2 µM (inactive)
5 | COc1ccc(-c2nnc(CCCCCCCCc3nnc(-c4ccc(OC)cc4)o3)o2)cc1 | > 100 µM (inactive) | > 100 µM (inactive) | > 100 µM (inactive) | > 100 µM (inactive) | > 100 µM (inactive) | > 100 µM (inactive) | 54.2 µM (inactive) | > 100 µM (inactive) | > 100 µM (inactive) | > 100 µM (inactive) | > 100 µM (inactive) | > 100 µM (inactive) | 36.4 µM (inactive) | > 100 µM (inactive) | > 100 µM (inactive) | 27.6 µM (inactive) | 57.4 µM (inactive) | > 100 µM | > 100 µM (inactive) | 44.4 µM (inactive)
6 | CCCCCCCCCCCCCC(=O)OC(/C=C/C(C)C)C(O)C(O)C(OC)C(=O)NC1CCCCNC1=O (stereo not given) | 0.579 µM (active) | 2.39 µM (inactive) | 3.82 µM (inactive) | 1.9 µM (inactive) | 2.65 µM (inactive) | 5.97 µM (inactive) | 2.54 µM (inactive) | 2.02 µM (inactive) | 1.61 µM (inactive) | 0.574 µM (active) | 0.57 µM (active) | 9.04 µM (inactive) | 0.815 µM (active) | > 10 µM (inactive) | 1.52 µM (inactive) | 0.673 µM (active) | 0.308 µM (active) | 1.43 µM | 0.257 µM (active) | 5.21 µM (inactive)
7 | Cc1ccc2[nH]c(=N/c3ccccc3C)/c(=N\c3ccccc3C)[nH]c2c1 | 32.7 µM (inactive) | 29.2 µM (inactive) | 24.5 µM (inactive) | 22.1 µM (inactive) | 12.7 µM (inactive) | 32.2 µM (inactive) | 43 µM (inactive) | 22.2 µM (inactive) | 64.4 µM (inactive) | 23.5 µM (inactive) | > 100 µM (inactive) | 25.5 µM (inactive) | 46.8 µM (inactive) | 30 µM (inactive) | 48.1 µM (inactive) | 26.1 µM (inactive) | 30 µM (inactive) | 22.3 µM | 20.5 µM (inactive) | 26.9 µM (inactive)
8 | COC(=O)C1=C(CCCCO[Si](C)(C)C(C)(C)C)NC(=O)N2[C@H](CCOCc3ccccc3)CC[C@@H]12 | 30.1 µM (inactive) | > 100 µM (inactive) | 31.5 µM (inactive) | 13 µM (inactive) | 75.3 µM (inactive) | 39.2 µM (inactive) | > 100 µM (inactive) | 40 µM (inactive) | > 100 µM (inactive) | > 100 µM (inactive) | > 100 µM (inactive) | 55.3 µM (inactive) | 78.3 µM (inactive) | 32.7 µM (inactive) | > 100 µM (inactive) | 23.7 µM (inactive) | 44.7 µM (inactive) | 40.6 µM | 26.7 µM (inactive) | > 100 µM (inactive)
9 | C=CC[C@@]12CCC(=O)C=C1CCCC2=O | > 100 µM (inactive) | > 100 µM (inactive) | > 100 µM (inactive) | > 100 µM (inactive) | > 100 µM (inactive) | > 100 µM (inactive) | > 100 µM (inactive) | > 100 µM (inactive) | > 100 µM (inactive) | > 100 µM (inactive) | > 100 µM (inactive) | > 100 µM (inactive) | > 100 µM (inactive) | > 100 µM (inactive) | > 100 µM (inactive) | > 100 µM (inactive) | > 100 µM (inactive) | > 100 µM | > 100 µM (inactive) | > 100 µM (inactive)
10 | CC1(C)CCC[C@]2(C)[C@@H]1CC[C@@]13O[C@@H]1C1=C(CO)C(=O)O[C@]14O[C@@H]4[C@@H]23 | 5.9 µM (inactive) | 19 µM (inactive) | 11.9 µM (inactive) | 13.2 µM (inactive) | 13.9 µM (inactive) | 10.4 µM (inactive) | 16.7 µM (inactive) | 17 µM (inactive) | 15.6 µM (inactive) | 19.2 µM (inactive) | 15.1 µM (inactive) | 5.78 µM (inactive) | 14.8 µM (inactive) | 14.9 µM (inactive) | 15 µM (inactive) | 13.8 µM (inactive) | 15.2 µM (inactive) | 14.5 µM | 7.98 µM (inactive) | 17.3 µM (inactive)
11 | CCOC(=O)C1(O)C(=O)C2=C3C(=O)OC(C4OC(=O)c5c(c(O)c(O)c(O)c5C31)-c1c(cc(O)c(O)c1O)C(=O)OC1COC(=O)c3cc(O)c(O)c(O)c3-c3c(cc(O)c(O)c3O)C(=O)OC14)[C@@H]2O (stereo not given in full) | 17 µM (inactive) | 16.5 µM (inactive) | 13.4 µM (inactive) | 14.3 µM (inactive) | 25.7 µM (inactive) | 13 µM (inactive) | 61.8 µM (inactive) | 26.9 µM (inactive) | > 100 µM (inactive) | 25.7 µM (inactive) | 22 µM (inactive) | 14.9 µM (inactive) | > 100 µM (inactive) | 27.6 µM (inactive) | 22.4 µM (inactive) | 19.2 µM (inactive) | 19.2 µM (inactive) | 17.6 µM | 15.2 µM (inactive) | > 100 µM (inactive)
